The target in this assay is TRPV1 (Homo sapiens, UniProt Q8NER1). As to the kind of experiment: Calcium imaging (Fura-2 AM) in TRPV1-expressing HEK293 cells. The settings on record: compound alone, 5 μM. It is filed as cell-based.
Chain of TRPV1 (Q8NER1 whole entry): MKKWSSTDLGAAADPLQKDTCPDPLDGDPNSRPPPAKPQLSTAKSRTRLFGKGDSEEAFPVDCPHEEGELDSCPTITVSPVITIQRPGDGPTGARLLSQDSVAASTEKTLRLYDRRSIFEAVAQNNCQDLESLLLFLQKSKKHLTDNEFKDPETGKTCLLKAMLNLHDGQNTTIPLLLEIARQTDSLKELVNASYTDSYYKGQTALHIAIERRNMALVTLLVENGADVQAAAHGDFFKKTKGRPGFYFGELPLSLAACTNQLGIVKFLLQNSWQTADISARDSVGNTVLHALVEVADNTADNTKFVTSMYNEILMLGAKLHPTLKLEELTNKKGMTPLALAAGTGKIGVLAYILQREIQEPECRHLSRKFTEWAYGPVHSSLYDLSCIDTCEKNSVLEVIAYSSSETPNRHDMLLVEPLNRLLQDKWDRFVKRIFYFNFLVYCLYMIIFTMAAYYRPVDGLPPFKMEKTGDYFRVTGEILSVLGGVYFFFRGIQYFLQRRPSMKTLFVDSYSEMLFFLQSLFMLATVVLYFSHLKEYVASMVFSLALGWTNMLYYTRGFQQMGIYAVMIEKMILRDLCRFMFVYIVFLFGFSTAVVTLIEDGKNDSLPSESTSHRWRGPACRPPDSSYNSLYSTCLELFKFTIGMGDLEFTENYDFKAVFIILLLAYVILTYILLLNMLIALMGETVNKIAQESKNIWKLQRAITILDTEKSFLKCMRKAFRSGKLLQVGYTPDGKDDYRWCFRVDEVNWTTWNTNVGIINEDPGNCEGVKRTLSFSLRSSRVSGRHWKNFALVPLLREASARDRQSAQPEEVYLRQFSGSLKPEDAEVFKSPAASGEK

`CCCCC/C=C\C/C=C\C/C=C\C/C=C\CCCC(=O)NCCO` [Anandamide]: the “Effect on intracellular calcium (Ca^2+) in TPRV1-expressing cells” value is “increases intracellular calcium”.

The values are drawn from patent US12091389B2, “Pyrazolylbenzene-1,3-diols for diseases associated with g protein-coupled receptor 18 and in combination with transient receptor potential vanilloid 1” (Temple University—Of The Commonwealth System of Higher …, priority 2020, dated 2024).
